Measurements: US20040175447A1, “Feeds and fertilizers containing pentacyclic triterpenes” (The Nisshin OilliO, Ltd., priority 2001, published 2004)

System: B-16 melanoma cells
Assay: Evaluation of melanin production-inhibitory effect (cell-whitening degree of cultured B-16 melanoma cells); on Melanin production-inhibitory effect (cell-whitening degree): key: ++: The whitening degree is higher than that observed for the positive control; +: The whitening degree is almost identical to that observed for the positive control; ±: The whitening degree is not higher than that observed for the positive control, but higher than that observed for the control; −: The whitening degree is almost identical to that observed for the control
Assay type: cell-based
Settings: for Melanin production-inhibitory effect (cell-whitening degree): positive control 450 ppm vitamin C-magnesium phosphate; for melanogenesis-inhibitory function relative to that observed when 450 ppm of vitamin C-magnesium phosphate (standard) is added: from Table 1
Experimental: In the present invention, the melanogenesis-inhibitory effect is evaluated and compared on the basis of the results of tests for examining the melanogenesis-inhibitory function in which B-16 melanoma cells are cultivated, as a primary evaluation. Moreover, a feed is, for instance, practically prepared and its effectiveness in the melanogenesis-inhibition is evaluated as a secondary evaluation. It has been confirmed that the pentacyclic triterpenes whose strong melanogenesis-inhibitory function is confirmed by the cell culture test as the primary evaluation also show an excellent effect in the secondary evaluation test. In addition, it has also been confirmed that there is a correlation between the results obtained in these two evaluation methods.
If the culture system includes a melanogenesis-inhibitory substance during the proliferation thereof, the blackening of the cells is suppressed while the whitening thereof is relatively promoted. Accordingly, the melanogenesis-inhibitory function of the substance can be evaluated by comparing the degree of whitening observed for the substance with the degree of blackening observed for a control. The evaluated results of the melanogenesis-inhibitory effect obtained in this cell culture system clearly indicate that the pentacyclic triterpenes and/or physiologically acceptable salts thereof or derivatives thereof have quite strong melanogenesis-inhibitory effects. For instance, when comparing the effects thereof with that achieved by vitamin C-magnesium phosphate, the melanogenesis-inhibitory effect is about 100 to 200 times, for maslinic acid, about 100 to 200 times, for maslinic acid salts, about 10 to 100 times, for erythrodiol, about 30 to 120 times, for uvaol, about 30 to 120 times, for betulinic acid, about 10 to 100 times, for betulin, about 100 to 200 times, for ethyl maslinate, about 50 to 150 times, for acetylated maslinic acid, about 30 to 120 times, for triethylsilylated maslinic acid, about 50 to 150 times, for stearoyl derivative of ethyl maslinate, about 10 to 100 times, for acetylated erythrodiol, about 10 to 100 times, for acetylated uvaol, about 10 to 100 times, for ethyl betulinate, and about 5 to 50 times, for acetylated betulin, that observed for the vitamin C-magnesium phosphate.
A culture medium was dispensed to wells of a 6-well plate (2 mL/well each), followed by inoculation of a desired amount of B-16 melanoma cells on each well, allowing the wells to stand at 37° C. and 5% CO2 to thus cultivate the cells. On the day subsequent thereto, a candidate sample (pentacyclic triterpenes) solution prepared was added to and mixed with the culture medium containing the cells and the cultivation was continued. The culture medium was replaced with fresh one on the 5th day from the initiation of the cultivation and the prepared sample solution was again added to the wells. On the next day, the culture medium was removed to recover the cells, followed by the washing of these cells with PBS (phosphate buffered physiological saline) and the subsequent evaluation of the cell-whitening degree. In this respect, the melanogenesis-inhibitory function was evaluated by comparing the cell-whitening degree thus obtained with that observed when using 450 ppm of vitamin C-magnesium phosphate as a known whitening agent (a positive control) and that obtained when any candidate sample was not used (control), according to the following evaluation criteria.
The evaluation criteria for the cell-whitening degree are as follows:
Regarding the results listed in Table 1, the whitening degree observed when adding 450 ppm of vitamin C-magnesium phosphate is selected as a standard.

CC1(C)CC[C@]2(C(=O)O)CC[C@]3(C)C(=CC[C@@H]4[C@@]5(C)C[C@@H](O)[C@H](O)C(C)(C)[C@@H]5CC[C@]43C)[C@@H]2C1 [Purified maslinic acid 2, maslinic acid]
Melanin production-inhibitory effect (cell-whitening degree) (2 ppm): ± | Melanin production-inhibitory effect (cell-whitening degree) (4 ppm): + | Melanin production-inhibitory effect (cell-whitening degree) (6 ppm): ++ | Melanin production-inhibitory effect (cell-whitening degree) (8 ppm): ++ | Melanin production-inhibitory effect (cell-whitening degree) (10 ppm): ++

C[C@H]1[C@H](C)CC[C@]2(C(=O)O)CC[C@]3(C)C(=CC[C@@H]4[C@@]5(C)CC[C@H](O)C(C)(C)[C@@H]5CC[C@]43C)[C@H]12 [Ursolic acid]
Melanin production-inhibitory effect (cell-whitening degree) (2 ppm): ± | Melanin production-inhibitory effect (cell-whitening degree) (4 ppm): + | Melanin production-inhibitory effect (cell-whitening degree) (6 ppm): ++ | Melanin production-inhibitory effect (cell-whitening degree) (8 ppm): ++ | Melanin production-inhibitory effect (cell-whitening degree) (10 ppm): ++ | melanogenesis-inhibitory function relative to that observed when 450 ppm of vitamin C-magnesium phosphate (standard) is added: about 110 times

C[C@H]1[C@H](C)CC[C@]2(CO)CC[C@]3(C)C(=CC[C@@H]4[C@@]5(C)CC[C@H](O)C(C)(C)[C@@H]5CC[C@]43C)[C@H]12 [Uvaol]
Melanin production-inhibitory effect (cell-whitening degree) (2 ppm): − | Melanin production-inhibitory effect (cell-whitening degree) (6 ppm): − | Melanin production-inhibitory effect (cell-whitening degree) (10 ppm): + | Melanin production-inhibitory effect (cell-whitening degree) (25 ppm): + | Melanin production-inhibitory effect (cell-whitening degree) (50 ppm): + | melanogenesis-inhibitory function relative to that observed when 450 ppm of vitamin C-magnesium phosphate (standard) is added: about 40 times
